Source: patent US8426408B2, “Pyrimidine inhibitors of kinases” (AbbVie Inc., priority 2009, dated 2013)

Key:
[1] = system: NCI-H1299 cells; assay: Induction of polyploidy in H1299; assay type: cell-based, Human; settings: NCI-H1299, 48 hours
Method: To determine the induction of polyploidy in H1299 cells, NCI-H1299 were seeded (4K/well) into 96-well culture plates (tissue culture grade, black, flat-clear bottom) and incubated overnight to produce cell-to-plate adherence. Inhibitors at varying concentrations were added into duplicate wells containing cells and culture media (RPMI 1640, 10% fetal calf serum) and incubated at 37 C for 48 hours. The plates were then washed with PBS and the adherent cells fixed by incubating with 3% formalin for 1 hour. After washing four times with PBS, the cells were then stained with Hoechst and subjected to fluorescent (360 i/460e) microscopic high content analysis to determine the effect of inhibitors on nuclear size. Polyploid cells (≧4N) were defined as those having nuclear area>750μ^2. Potency was expressed as the concentration of inhibitor necessary to induce polyploidy in 15% of cells (EC15) and was calculated from least squares analysis of the log dose-response.

[2] = molecular target: T1, Aurora A (Homo sapiens, UniProt O14965); assay: Aurora A enzyme inhibition (time-resolved fluorescence, STK substrate-2); assay type: biochemical; settings: 1 mM ATP
T1 sequence (O14965 1-403): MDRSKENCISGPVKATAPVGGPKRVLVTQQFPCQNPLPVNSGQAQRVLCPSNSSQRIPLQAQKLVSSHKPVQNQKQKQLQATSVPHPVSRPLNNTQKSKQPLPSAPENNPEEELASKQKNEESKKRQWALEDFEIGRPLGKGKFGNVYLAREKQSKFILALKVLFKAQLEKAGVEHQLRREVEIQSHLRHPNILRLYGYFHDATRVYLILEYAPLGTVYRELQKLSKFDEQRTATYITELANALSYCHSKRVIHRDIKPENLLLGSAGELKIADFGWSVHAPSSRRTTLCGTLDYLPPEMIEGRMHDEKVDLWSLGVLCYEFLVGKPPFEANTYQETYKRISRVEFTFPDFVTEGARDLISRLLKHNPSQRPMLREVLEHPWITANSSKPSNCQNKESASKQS
Method in brief: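 Phosphorylation of biotinylated STK substrate-2 at 1 mM ATP, 1 h, Hepes buffer pH 7.4 (MgCl2, sodium orthovanadate, Triton X-100). After EDTA quench, 665/615 nm time-resolved fluorescence ratio read via europium anti-phospho antibody and SA-XL665; IC50 from exponential fit versus inhibitor concentration.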

[3] = molecular target: KDR (Homo sapiens, UniProt P35968); assay: KDR cellular assay (KDR receptor phosphorylation ELISA); assay type: cell-based; set-up: expressed in transfected cells; host or cells: 3T3 (embryonic mouse) cells; settings: KDR transfected 3T3 (embryonic mouse) cells, VEGF stimulated; read-out: IC50 inhibition of KDR phosphorylation
Method in brief: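 Phospho-KDR measured by capture ELISA (anti-KDR coat, biotinylated detection, streptavidin-HRP, 450 nm) in lysates of KDR-expressing 3T3 mouse fibroblasts. Cells saw compound 20 min at 37° C before 10 min VEGF challenge (100 ng/ml solution); IC50 from non-linear regression of half-log dose series.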

Chain of KDR (P35968 20-1356): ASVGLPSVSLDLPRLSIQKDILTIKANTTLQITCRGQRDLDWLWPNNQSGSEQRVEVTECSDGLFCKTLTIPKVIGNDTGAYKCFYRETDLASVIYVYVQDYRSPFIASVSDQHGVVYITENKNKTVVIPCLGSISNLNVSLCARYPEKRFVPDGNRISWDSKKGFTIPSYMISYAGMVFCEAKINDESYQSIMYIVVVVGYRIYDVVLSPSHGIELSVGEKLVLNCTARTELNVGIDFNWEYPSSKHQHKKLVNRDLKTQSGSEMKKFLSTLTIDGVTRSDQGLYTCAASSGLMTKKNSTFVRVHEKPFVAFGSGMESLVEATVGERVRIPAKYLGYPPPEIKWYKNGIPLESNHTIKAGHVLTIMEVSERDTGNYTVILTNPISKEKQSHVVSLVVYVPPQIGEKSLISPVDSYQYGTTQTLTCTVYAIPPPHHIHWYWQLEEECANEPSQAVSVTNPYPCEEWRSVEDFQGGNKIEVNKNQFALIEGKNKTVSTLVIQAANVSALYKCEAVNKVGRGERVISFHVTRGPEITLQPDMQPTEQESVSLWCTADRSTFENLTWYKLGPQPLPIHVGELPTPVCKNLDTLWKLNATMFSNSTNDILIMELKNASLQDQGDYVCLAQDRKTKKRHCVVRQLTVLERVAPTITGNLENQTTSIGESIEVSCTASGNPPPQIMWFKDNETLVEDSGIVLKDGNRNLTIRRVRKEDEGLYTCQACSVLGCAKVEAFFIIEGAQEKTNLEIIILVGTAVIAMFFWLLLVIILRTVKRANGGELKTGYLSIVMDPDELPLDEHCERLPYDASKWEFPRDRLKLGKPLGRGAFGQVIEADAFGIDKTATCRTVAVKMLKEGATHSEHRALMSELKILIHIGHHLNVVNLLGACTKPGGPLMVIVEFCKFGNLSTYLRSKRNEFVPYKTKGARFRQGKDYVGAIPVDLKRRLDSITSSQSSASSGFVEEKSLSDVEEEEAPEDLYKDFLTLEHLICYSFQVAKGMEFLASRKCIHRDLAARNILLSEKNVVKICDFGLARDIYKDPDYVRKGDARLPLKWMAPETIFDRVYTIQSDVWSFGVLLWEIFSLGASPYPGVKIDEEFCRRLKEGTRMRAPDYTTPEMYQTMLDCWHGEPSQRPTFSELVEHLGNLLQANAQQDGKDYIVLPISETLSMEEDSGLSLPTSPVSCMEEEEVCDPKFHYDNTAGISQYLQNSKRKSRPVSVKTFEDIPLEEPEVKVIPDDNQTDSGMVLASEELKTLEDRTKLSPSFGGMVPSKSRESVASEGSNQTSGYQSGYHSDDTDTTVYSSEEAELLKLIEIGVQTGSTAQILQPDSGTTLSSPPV

Row | Ki [2] [nM] | IC50 [3] [nM] | SMILES | EC15 (concentration of inhibitor necessary to induce polyploidy in 15% of cells) [1]
1 | < 100 | < 100 | Cn1cc(Nc2ncc(C(F)(F)F)c(N[C@@H]3[C@H](C(N)=O)[C@H]4C=C[C@@H]3C4)n2)cn1.Cn1cc(Nc2ncc(C(F)(F)F)c(N[C@H]3[C@@H](C(N)=O)[C@@H]4C=C[C@H]3C4)n2)cn1 (mixture of isomers) [Example 10, (1S,2S,3R,4R)-3-{[2-[(1-methyl-1H-pyrazol-4-yl)amino]-5-(trifluoromethyl)pyrimidin-4-yl]amino}bicyclo[2.2.1]hept-5-ene-2-carboxamide and (1R,2R,3S,4S)-3-{[2-[(1-methyl-1H-pyrazol-4-yl)amino]-5-(trifluoromethyl)pyrimidin-4-yl]amino}bicyclo[2.2.1]hept-5-ene-2-carboxamide] | A (“A” represents an EC15 of less than 0.1 μM)
2 | < 100 | 100 to 1000 | CCn1cc(Nc2ncc(Cl)c(N[C@@H]3[C@@H]4CC[C@@H](C4)[C@@H]3C(N)=O)n2)cn1.CCn1cc(Nc2ncc(Cl)c(N[C@H]3[C@H]4CC[C@H](C4)[C@H]3C(N)=O)n2)cn1 (mixture of isomers) [Example 114, (1R,2R,3S,4S)-3-({5-chloro-2-[(1-ethyl-1H-pyrazol-4-yl)amino]pyrimidin-4-yl}amino)bicyclo[2.2.1]heptane-2-carboxamide and (1S,2S,3R,4R)-3-({5-chloro-2-[(1-ethyl-1H-pyrazol-4-yl)amino]pyrimidin-4-yl}amino)bicyclo[2.2.1]heptane-2-carboxamide] | A (“A” represents an EC15 of less than 0.1 μM)
3 | < 100 | 100 to 1000 | CCn1cc(Nc2ncc(Cl)c(N[C@@H]3[C@H](C(N)=O)[C@@H]4C=C[C@H]3C4)n2)cn1.CCn1cc(Nc2ncc(Cl)c(N[C@H]3[C@@H](C(N)=O)[C@H]4C=C[C@@H]3C4)n2)cn1 (mixture of isomers) [Example 121, (1S,2R,3S,4R)-3-({5-chloro-2-[(1-ethyl-1H-pyrazol-4-yl)amino]pyrimidin-4-yl}amino)bicyclo[2.2.1]hept-5-ene-2-carboxamide and (1R,2S,3R,4S)-3-({5-chloro-2-[(1-ethyl-1H-pyrazol-4-yl)amino]pyrimidin-4-yl}amino)bicyclo[2.2.1]hept-5-ene-2-carboxamide] | A (“A” represents an EC15 of less than 0.1 μM)

Continued, compound first:

Row | SMILES | Ki [2] [nM] | IC50 [3] [nM] | EC15 (concentration of inhibitor necessary to induce polyploidy in 15% of cells) [1]
4 | CC(O)Cn1cc(Nc2ncc(C(F)(F)F)c(NC3C4C=CC(C4)C3C(N)=O)n2)cn1 (mixture of isomers) [Example 19, (1R,2R,3S,4S)-3-{[2-({1-[(2R)-2-hydroxypropyl]-1H-pyrazol-4-yl}amino)-5-(trifluoromethyl)pyrimidin-4-yl]amino}bicyclo[2.2.1]hept-5-ene-2-carboxamide and (1S,2S,3R,4R)-3-{[2-({1-[(2R)-2-hydroxypropyl]-1H-pyrazol-4-yl}amino)-5-(trifluoromethyl)pyrimidin-4-yl]amino}bicyclo[2.2.1]hept-5-ene-2-carboxamide] | < 100 | < 100 | A (“A” represents an EC15 of less than 0.1 μM)
5 | Cn1cc(Nc2ncc(C(F)(F)F)c(N[C@@H]3[C@@H]4CC[C@@H](C4)[C@@H]3C(N)=O)n2)cn1.Cn1cc(Nc2ncc(C(F)(F)F)c(N[C@H]3[C@H]4CC[C@H](C4)[C@H]3C(N)=O)n2)cn1 (mixture of isomers) [Example 20, (1S,2S,3R,4R)-3-{[2-[(1-methyl-1H-pyrazol-4-yl)amino]-5-(trifluoromethyl)pyrimidin-4-yl]amino}bicyclo[2.2.1]heptane-2-carboxamide and (1R,2R,3S,4S)-3-{[2-[(1-methyl-1H-pyrazol-4-yl)amino]-5-(trifluoromethyl)pyrimidin-4-yl]amino}bicyclo[2.2.1]heptane-2-carboxamide] | < 100 | < 100 | A (“A” represents an EC15 of less than 0.1 μM)
6 | CC(O)Cn1cc(Nc2ncc(C(F)(F)F)c(NC3C4CCC(C4)C3C(N)=O)n2)cn1 (mixture of isomers) [Example 21, (1S,2R,3S,4R)-3-{[2-({1-[(2R)-2-hydroxypropyl]-1H-pyrazol-4-yl}amino)-5-(trifluoromethyl)pyrimidin-4-yl]amino}bicyclo[2.2.1]heptane-2-carboxamide and (1R,2S,3R,4S)-3-{[2-({1-[(2R)-2-hydroxypropyl]-1H-pyrazol-4-yl}amino)-5-(trifluoromethyl)pyrimidin-4-yl]amino}bicyclo[2.2.1]heptane-2-carboxamide] | < 100 | 100 to 1000 | A (“A” represents an EC15 of less than 0.1 μM)
7 | CCn1cc(Nc2ncc(C(F)(F)F)c(N[C@@H]3[C@H](C(N)=O)[C@H]4C=C[C@@H]3C4)n2)cn1.CCn1cc(Nc2ncc(C(F)(F)F)c(N[C@H]3[C@@H](C(N)=O)[C@@H]4C=C[C@H]3C4)n2)cn1 (mixture of isomers) [Example 22, (1S,2S,3R,4R)-3-{[2-[(1-ethyl-1H-pyrazol-4-yl)amino]-5-(trifluoromethyl)pyrimidin-4-yl]amino}bicyclo[2.2.1]hept-5-ene-2-carboxamide and (1R,2R,3S,4S)-3-{[2-[(1-ethyl-1H-pyrazol-4-yl)amino]-5-(trifluoromethyl)pyrimidin-4-yl]amino}bicyclo[2.2.1]hept-5-ene-2-carboxamide] | < 100 | < 100 | A (“A” represents an EC15 of less than 0.1 μM)
8 | CCn1cc(Nc2ncc(C(F)(F)F)c(N[C@@H]3[C@H]4CC[C@H](C4)[C@@H]3C(N)=O)n2)cn1.CCn1cc(Nc2ncc(C(F)(F)F)c(N[C@H]3[C@@H]4CC[C@@H](C4)[C@H]3C(N)=O)n2)cn1 (mixture of isomers) [Example 24, (1R,2S,3R,4S)-3-{[2-[(1-ethyl-1H-pyrazol-4-yl)amino]-5-(trifluoromethyl)pyrimidin-4-yl]amino}bicyclo[2.2.1]heptane-2-carboxamide and (1S,2R,3S,4R)-3-{[2-[(1-ethyl-1H-pyrazol-4-yl)amino]-5-(trifluoromethyl)pyrimidin-4-yl]amino}bicyclo[2.2.1]heptane-2-carboxamide] | < 100 | < 100 | A (“A” represents an EC15 of less than 0.1 μM)
9 | CCn1cc(Nc2ncc(Br)c(N[C@@H]3[C@H](C(N)=O)[C@H]4C=C[C@@H]3C4)n2)cn1.CCn1cc(Nc2ncc(Br)c(N[C@H]3[C@@H](C(N)=O)[C@@H]4C=C[C@H]3C4)n2)cn1 (mixture of isomers) [Example 31, (1S,2S,3R,4R)-3-({5-bromo-2-[(1-ethyl-1H-pyrazol-4-yl)amino]pyrimidin-4-yl}amino)bicyclo[2.2.1]hept-5-ene-2-carboxamide and (1R,2R,3S,4S)-3-({5-bromo-2-[(1-ethyl-1H-pyrazol-4-yl)amino]pyrimidin-4-yl}amino)bicyclo[2.2.1]hept-5-ene-2-carboxamide] | < 100 | < 100 | A (“A” represents an EC15 of less than 0.1 μM)
10 | Cn1cc(Nc2ncc(Cl)c(N[C@@H]3[C@@H]4CC[C@@H](C4)[C@@H]3C(N)=O)n2)cn1.Cn1cc(Nc2ncc(Cl)c(N[C@H]3[C@H]4CC[C@H](C4)[C@H]3C(N)=O)n2)cn1 (mixture of isomers) [Example 113, (1R,2R,3S,4S)-3-({5-chloro-2-[(1-methyl-1H-pyrazol-4-yl)amino]pyrimidin-4-yl}amino)bicyclo[2.2.1]heptane-2-carboxamide and (1S,2S,3R,4R)-3-({5-chloro-2-[(1-methyl-1H-pyrazol-4-yl)amino]pyrimidin-4-yl}amino)bicyclo[2.2.1]heptane-2-carboxamide] | < 100 | 100 to 1000 | A (“A” represents an EC15 of less than 0.1 μM)
